Results reported in patent US10342796B2, “Acrylanilide derivative, preparation method, and applications thereof in pharmacy” (Ancureall Pharmaceutical (Shanghai) Co., Ltd., priority 2015, dated 2019).
Read-outs that look alike come from different tables or passages of the source.

Experiments:
Test in all cases: Growth inhibition GI50 in vitro (CCK8/MTT, 72 h)
[1] = system: PC-9 (EGFR dE746-A750); format: cell-based, human; details: Homo sapiens
[2] = system: H1975 (EGFR L858R/T790M); format: cell-based, human; details: Homo sapiens, NCI-H1975
[3] = system: A549 (EGFR WT); format: cell-based, human; details: Homo sapiens
[4] = system: H292 (EGFR WT); format: cell-based; details: Homo sapiens, NCI-H292
Source text: EGFR wild type cell lines: human epidermal cancer cell line A431 (EGFR WT, amplification and high expression, from Shanghai Cell Bank of Chinese Academy of Sciences and ATCC), NSCLC cell lines NCI-H460 (EGFR WT, Kras G61H and PI3KCA E545K mutants, ATCC) and NCI-H1299 (EGFR WT, ATCC), melanoma cell line A375 (EGFR WT and BRAF V600E mutant, from Shanghai Cell Bank of Chinese Academy of Sciences, ATCC), human lung cancer cell line NCI-H292 (EGFR WT, from human lung mucoepidermoid carcinoma/lymphatic metastasis, purchased from Shanghai Cell Bank of Chinese Academy of Sciences) were cultured with 1×RPMI1640 complete medium which was supplement with 10% FBS. NSCLC cell line A549 (EGFR WT and Kras G12S mutant, from Shanghai Cell Bank of Chinese Academy of Sciences) was cultured with 1×Ham'S F12K complete medium which was supplement with 10% FBS, 1% double-antibiotics and 2 mM glutamine.
(§1) The suspension cells were collected by centrifugation. The supernatant was discard and the cell pellet was resuspended and counted. Different cell concentrations (5˜10×10^4 cells/mL) were prepared according to the growth cycle of each cell line and then seeded on a 96-well plate (Corning), 100 μL/well. The cells were incubated over night at 37° C., 5% CO2. The compounds were added to the cells on the second day with 2 wells in parallel. The final concentration of organic solvent shall not exceed 1%. The cells were continually incubated for 72 h, and then subjected to MTT assay.
(§2) The present compounds and the reference compounds were dissolved with DMSO (Sigma), respectively. […] The storage concentration of compounds was 10 mM and kept at −20° C. They were diluted by 2 times or 10 times with serial dilution before using.
(§3) Dojindo CCK8 reagent kit was used as MTT assay. […] FC meter was used as microplate reader.
(§4) Adherent cell culture medium was discard and immediately replaced with fresh prepared medium which contains 10% CCK8 reagent (100 μL/well). For the suspension cells, CCK8 was directly added to 10% of the final concentration. The cells were continually incubated for 1˜4 h. When the color of control wells turned to dark yellow, the absorption value was measured at OD450 nm. The cell growth rate was calculated according to the following formula: cell growth rate (%)=100*(T−T0)/(C−T0), T=optical density of drug treatment cell well—optical density of blank control well; T0=optical density of cell well before drug treatment—optical density of blank control well; C=optical density of cell well of solvent control group—optical density of blank control well. […] The experiment was independently repeated 1˜3 times, and subject to biological statistical analysis.

[5] = system: N87 (HER2 Amp); format: cell-based, human; details: Homo sapiens
[6] = system: PC-9ER (EGFR delE746-A750/T790M); format: cell-based, human; details: Homo sapiens, PC-9/ER; EGFR mutant cell line; range of GI50; read-out: GI50 PC9ER
[7] = system: HCC827 (EGFR dE746-A750); format: cell-based, human; details: Homo sapiens
[8] = system: AU565 (Her2 amp); format: cell-based, human; details: Homo sapiens
[9] = system: SK-BR-3 (Her2 amp); format: cell-based, human; details: Homo sapiens
[10] = system: H460 (EGFR wt, Kras G61H); format: cell-based, human; details: Homo sapiens, NCI-H460
[11] = system: H1299 (EGFR wt, Nras Q61K); format: cell-based, human; details: Homo sapiens, NCI-H1299
[12] = system: A431 (EGFR WT, amplification and high expression); format: cell-based, human; details: Homo sapiens, A-431
[13] = system: Calu-3 (Her2 amp); format: cell-based; details: Homo sapiens, Calu-3; Table 16; 1000 nM to 0.03 nM serial dilution; read-out: GI50 Calu3 (HER2 amp)
Protocol: Human lung adenocarcinoma cell line Calu-3 (ATCC) was cultured with 1×MEM complete medium (10% FBS, 1% double-antibiotics, 1% NEAA (Gibco), 2 mM glutamine and 1 mM of sodium pyruvate). Human breast cancer cell line SK-BR-3 was cultured with McCOY'S5A complete medium (10% FBS). Human colon cancer cell line SNU1040 (HER2 V777M positive) (ATCC) and human bronchoalveolar adenocarcinoma cell line NCI-H1781 (expressing HER2 exon 20 G776VC mutation) (ATCC) were cultured with 1×RPMI1640 complete medium (10% FBS), respectively.
as §1, §2, §3, §4

[14] = Table 13, 72 h, read-out: Range of GI50 PC-9 (EGFR dE746-A750)
[15] = Table 15, 1000 nM to 0.03 nM serial dilution, read-out: GI50 PC-9 (EGFR dE746-A750)
[16] = Table 13, 72 h, read-out: Range of GI50 H1975 (EGFR L858R/T790M)
[17] = Table 15, 1000 nM to 0.03 nM serial dilution, read-out: GI50 H1975 (EGFR L858R/T790M)
[18] = A549, Table 13, 72 h, read-out: Range of GI50 A549 (EGFR WT)
[19] = A549, Table 15, 1000 nM to 0.03 nM serial dilution, read-out: GI50 A549 (EGFR WT)
[20] = Table 15, 1000 nM to 0.03 nM serial dilution, read-out: GI50 H292 (EGFR WT)
[21] = Table 13, 72 h, read-out: Range of GI50 N87 (HER2 Amp)
[22] = Table 16, 1000 nM to 0.03 nM serial dilution, read-out: GI50 N87 (HER2 amp)
[23] = HCC827, EGFR mutant cell line, range of GI50, read-out: GI50 HCC827
[24] = EGFR mutant cell line, range of GI50, read-out: GI50 PC-9
[25] = EGFR mutant cell line, range of GI50, read-out: GI50 H1975
[26] = AU565, HER2 positive cell line, range of GI50, read-out: GI50 AU-565
[27] = SK-BR-3, HER2 positive cell line, range of GI50, read-out: GI50 SK-BR-3
[28] = A549, EGFR wild type cell line, range of GI50, read-out: GI50 A549
[29] = EGFR wild type cell line, range of GI50, read-out: GI50 H460
[30] = EGFR wild type cell line, range of GI50, read-out: GI50 H1299
[31] = EGFR wild type cell line, range of GI50, read-out: GI50 A431
[32] = HER2 positive cell line, range of GI50, read-out: GI50 N87

Structure (SMILES) | GI50 [1, 14] | GI50 [1, 15] | GI50 [2, 16] | GI50 [2, 17] | GI50 [3, 18] | GI50 [3, 19] | GI50 [4, 20] | GI50 [6] | GI50 [7, 23] | GI50 [1, 24] | GI50 [2, 25] | GI50 [9, 27] | GI50 [3, 28] | GI50 [10, 29] | GI50 [11, 30] | GI50 [12, 31] | GI50 [5, 21] | GI50 [5, 22] | GI50 [8, 26] | GI50 [5, 32] | other results
C=CC(=O)Nc1cc(Nc2nccc(-n3ccc4ccc(F)cc43)n2)c(OC)cc1N(C)CCN(C)C [Compound 63, N-(5-(4-(6-fluoro-1H-indol-1-yl)-pyrimidin-2-ylamino)-2-((2-(dimethylamino)ethyl)-methyl-amino)-4-methoxyl-phenyl)-acrylamide] | – | – | – | – | – | – | – | 10 to 100 nM | < 10 nM | < 10 nM | 10 to 100 nM | 100 to 1000 nM | > 1000 nM | > 1000 nM | > 1000 nM | 100 to 1000 nM | – | – | 100 to 1000 nM | 10 to 100 nM | –
C=CC(=O)Nc1cc(Nc2nccc(-n3cnc4ccccc43)n2)c(OC)cc1N(C)CCN(C)C [Compound 106] | – | – | – | – | – | – | – | 10 to 100 nM | 10 to 100 nM | 10 to 100 nM | 10 to 100 nM | 10 to 100 nM | > 1000 nM | > 1000 nM | > 1000 nM | 100 to 1000 nM | – | – | 10 to 100 nM | 10 to 100 nM | GI50 ([7]; HCC827, EGFR dE746-A750, read-out: GI50): 12.6 nM; GI50 ([1]; PC-9, EGFR dE746-A750, read-out: GI50): 15.6 nM; GI50 ([2]; H1975, EGFR L858R/T790M, read-out: GI50): 15.2 nM; GI50 ([8]; AU565, EGFR wt, Her2 amp, read-out: GI50): 19.5 nM; GI50 ([9]; SK-BR-3, EGFR wt, Her2 amp, read-out: GI50): 101 nM; GI50 ([3]; A549, EGFR wt, Kras G12S, read-out: GI50): > 1000 nM; GI50 ([10]; H460, EGFR wt, Kras G61H, read-out: GI50): > 1000 nM; GI50 ([11]; H1299, EGFR wt, Nras Q61K, read-out: GI50): > 1000 nM; GI50 ([12]; A431, EGFR wt, read-out: GI50): 498 nM; GI50 ([4]; H292, EGFR wt, read-out: GI50): > 1000 nM; GI50 ([5]; N87, EGFR wt, Her2 amp, read-out: GI50): 23.6 nM
C=CC(=O)Nc1cc(Nc2cc(-c3cn(C(C)C)c4ccc(F)cc34)ncn2)c(OC)cc1N(C)CCN(C)C [Compound 191, N-(5-(6-(5-fluoro-1-isopropyl-1H-indol-3-yl)-pyrimidin-4-ylamino)-4-methoxyl-2-((2-dimethylamino-ethyl)-methyl-amino)-phenyl)-acrylamide] | – | – | – | – | – | – | – | < 10 nM | < 10 nM | < 10 nM | < 10 nM | < 10 nM | > 1000 nM | > 1000 nM | > 1000 nM | 100 to 1000 nM | – | – | 10 to 100 nM | < 10 nM | –
C=CC(=O)Nc1cc(Nc2ncnc(Nc3cccc(Br)c3)n2)c(OC)cc1N(C)CCN(C)C [Compound 115, N-(5-(4-(3-bromo-phenylamino)-[1,3,5]triazin-2-ylamino)-2-((2-dimethylamino-ethyl)-methyl-amino)-4-methoxyl-phenyl)-acrylamide] | – | – | – | – | – | – | – | < 10 nM | < 10 nM | < 10 nM | 10 to 100 nM | < 10 nM | > 1000 nM | > 1000 nM | > 1000 nM | 100 to 1000 nM | – | – | 10 to 100 nM | < 10 nM | –

Further lines, with some results ahead:

GI50 [1, 14] | GI50 [1, 15] | GI50 [2, 16] | GI50 [2, 17] | GI50 [3, 18] | GI50 [3, 19] | GI50 [4, 20] | GI50 [6] | GI50 [7, 23] | GI50 [1, 24] | GI50 [2, 25] | GI50 [9, 27] | GI50 [3, 28] | GI50 [10, 29] | GI50 [11, 30] | GI50 [12, 31] | Structure (SMILES) | GI50 [5, 21] | GI50 [5, 22] | GI50 [8, 26] | GI50 [5, 32] | other results
< 10 nM | 9.87 nM | < 10 nM | 8.96 nM | > 1000 nM | > 1000 nM | > 1000 nM | – | – | – | – | – | – | – | – | – | C=CC(=O)Nc1cc(Nc2cc(Nc3ccc(OCC4CCOCC4)c(Cl)c3)ncn2)c(OC)cc1N(C)CCN(C)C [Compound 216, N-(5-(6-(3-chloro-4-(tetrahydropyran-4-yl-methoxyl)-phenylamino)-pyrimidin-4-ylamino)-2-((2-dimethylaminoethyl)-methyl-amino)-4-methoxyphenyl)-acrylamide] | < 10 nM | 19.5 nM | – | – | –
< 10 nM | 7.81 nM | < 10 nM | 4.9 nM | > 1000 nM | > 1000 nM | > 1000 nM | – | – | – | – | – | – | – | – | – | C=CC(=O)Nc1cc(Nc2nccc(-n3ccc4c(OCCOC)cccc43)n2)c(OC)cc1N(C)CCN(C)C [Compound 205, N-(5-(4-(4-(2-methoxyl-ethoxyl)-1H-indol-1-yl)-pyrimidin-2-ylamino)-2-(2-(dimethylamino-ethyl)-methyl-amino)-4-methoxyl-phenyl)-acrylamide] | < 10 nM | 5.61 nM | – | – | GI50 [13]: 7.88 nM
